Test results taken from patent US10730895B2, “Carbidopa prodrug” (AbbVie Inc., priority 2014, dated 2020).

Tests used:
[1] = 1-day stability study of individual prodrugs in aqueous solution; format: physicochemical; conditions: aqueous solution 80 μg/mL, ambient storage
Method: The L-dopa phosphate prodrugs and the carbidopa phosphate prodrugs were evaluated in a stability study.

[2] = 1-day stability study, diphosphate combination solution; format: physicochemical; conditions: combined solution L-dopa 3′,4′-diphosphate 35 mg/mL + carbidopa 3′,4′-diphosphate 8.7 mg/mL, pH 6.2, room temperature, nitrogen purged
Method: In addition, a solution combining the diphosphates of each compound (L-dopa 3′, 4′-diphosphate at 35 mg/mL and carbidopa 3′, 4′-diphosphate at 8.7 mg/mL) was monitored over one day at room temperature. This sample was purged with nitrogen to remove oxygen.

[3] = Solubility study in water by visual assessment; format: physicochemical; conditions: for solubility: thermodynamic from solid, water, ambient
Method: The L-dopa phosphate prodrugs and the carbidopa phosphate prodrugs were evaluated in a solubility study. The solubility values of the phosphate prodrugs in water under ambient conditions were determined by visual assessment. Table 13-A reports the results of the study, including the measured values for L-dopa and carbidopa.

[4] = In vitro bioconversion study, blood (human); format: in vitro ADME; conditions: for T1/2 / half-life at 2.5 ug/mL: prodrug 2.5 ug/mL, 37° C.
Method: (§1) In brief, the L-dopa and carbidopa phosphate prodrugs (2.5 ug/mL) were incubated with tissue homogenate or fractions from rats, mini-pigs, or human, including blood, skin homogenate (3 mg/mL), liver microsomes (1 mg/mL), liver S9 fraction (1 mg/mL), kidney S9 fraction (1 mg/mL), and intestine S9 fractions (1 mg/mL). The reaction mixtures were incubated at 37° C. for 5 to 6 time points within 1 to 2 hours. At the end of each time point, the reaction mixtures were quenched by 2 to 3 volumes of 5% trichloroacetic acid in water. After quenching, the mixtures were centrifuged at 3000 rpm for 20 minutes, and the supernatants were analyzed by LC-MS for quantitation of the prodrug, L-dopa or carbidopa. The in vitro bioconversion was assessed by monitoring both time-dependent depletion of the prodrug and the formation of the corresponding L-dopa or carbidopa.

[5] = In vitro bioconversion study, blood (rat); format: in vitro ADME; conditions: for half-life at 2.5 ug/mL: prodrug 2.5 ug/mL, 37° C.
Method: as §1

[6] = In vitro bioconversion study, blood (mini-pig); format: in vitro ADME; conditions: for T1/2 / half-life at 2.5 ug/mL: prodrug 2.5 ug/mL, 37° C.; for half-life at 2.5 ug/mL: minipig
Method: as §1

[7] = In vitro bioconversion study, skin homogenates (human); format: in vitro ADME; conditions: for L-Dopa or Carbidopa Formation: human skin homogenate; for T1/2 / half-life at 2.5 ug/mL: human skin homogenate 3 mg/mL, 37° C.
Method: (§2) The in vitro bioconversion of the L-dopa phosphate prodrugs to L-dopa and the carbidopa phosphate prodrugs to carbidopa was evaluated in several studies. In brief, the L-dopa and carbidopa phosphate prodrugs (2.5 ug/mL) were incubated with tissue homogenate or fractions from rats, mini-pigs, or human, including blood, skin homogenate (3 mg/mL), liver microsomes (1 mg/mL), liver S9 fraction (1 mg/mL), kidney S9 fraction (1 mg/mL), and intestine S9 fractions (1 mg/mL). The reaction mixtures were incubated at 37° C. for 5 to 6 time points within 1 to 2 hours. At the end of each time point, the reaction mixtures were quenched by 2 to 3 volumes of 5% trichloroacetic acid in water. After quenching, the mixtures were centrifuged at 3000 rpm for 20 minutes, and the supernatants were analyzed by LC-MS for quantitation of the prodrug, L-dopa or carbidopa. The in vitro bioconversion was assessed by monitoring both time-dependent depletion of the prodrug and the formation of the corresponding L-dopa or carbidopa.

[8] = In vitro bioconversion study, skin homogenates (rat); format: in vitro ADME; conditions: for L-Dopa or Carbidopa Formation: rat skin homogenate; for T1/2 / half-life at 2.5 ug/mL: rat skin homogenate 3 mg/mL, 37° C.
Method: as §1

[9] = In vitro bioconversion study, skin homogenates (mini-pig); format: in vitro ADME; conditions: for L-Dopa or Carbidopa Formation: mini-pig skin homogenate; for T1/2 / half-life at 2.5 ug/mL: mini-pig skin homogenate 3 mg/mL, 37° C.; for half-life at 2.5 ug/mL: minipig
Method: as §1

[10] = In vitro bioconversion study, human liver microsomes; format: in vitro ADME; conditions: human liver microsomes 1 mg/mL
Method: as §2

[11] = In vitro bioconversion study, liver S9 fraction (rat); format: in vitro ADME; conditions: rat liver S9 fraction 1 mg/mL
Method: as §2

[12] = In vitro bioconversion study, liver S9 fraction (mini-pig); format: in vitro ADME; conditions: mini-pig liver S9 fraction 1 mg/mL
Method: as §2

[13] = In vitro bioconversion study, liver S9 fraction (human); format: in vitro ADME; conditions: human liver S9 fraction 1 mg/mL
Method: as §2

[14] = In vitro bioconversion study, kidney S9 fraction (rat); format: in vitro ADME; conditions: rat kidney S9 fraction 1 mg/mL
Method: as §2

[15] = In vitro bioconversion study, kidney S9 fraction (human); format: in vitro ADME; conditions: human kidney S9 fraction 1 mg/mL
Method: as §2

[16] = In vitro bioconversion study, intestinal S9 fractions (human); format: in vitro ADME; conditions: for L-Dopa or Carbidopa Formation: human intestinal S9 fraction; for half-life at 2.5 ug/mL: human intestinal S9 fraction 1 mg/mL
Method: as §2

[17] = In vitro bioconversion study, intestinal S9 fractions (rat); format: in vitro ADME; conditions: for L-Dopa or Carbidopa Formation: rat intestinal S9 fraction; for half-life at 2.5 ug/mL: rat intestinal S9 fraction 1 mg/mL
Method: as §2

[18] = Carbidopa diphosphate pharmacokinetics study in mini-pigs; format: in vivo; conditions: for Estimated Conversion % (Based on Carbidopa AUC): mini-pig, SC, dose 8.5 mg/kg
Method: The in vivo conversion of the carbidopa diphosphate to carbidopa was evaluated in a mini-pig pharmacokinetics study in which the prodrug was administered in aqueous solution subcutaneously to a group of three mini-pigs. For comparison, a pharmacokinetics study with carbidopa also was conducted to help assess the in vivo conversion of the carbidopa prodrugs. The estimated in vivo conversion of the carbidopa diphosphate to carbidopa was approximately 100%, based on the carbidopa exposures.

[19] = 7-day stability study, 4′-monophosphate combination solution; format: physicochemical; conditions: combined solution L-dopa 4′-monophosphate 200 mg/mL + carbidopa 4′-monophosphate 50 mg/mL, pH 7.4, room temperature
Method: In addition, a solution combining the L-dopa 4′-monophosphate at 200 mg/mL and carbidopa 4′-monophosphate at 50 mg/mL was monitored over 7 days at room temperature. These samples were prepared with and without purging with nitrogen to remove oxygen.

[20] = format: in vivo, rats; conditions: rat, 4:1 combination, SC bolus 60/14 mg/kg then SC infusion 300/71 mg/kg
Method: After 1.5 hours, the combination was dosed again via continuous infusion at a dose of 300/71 mg/kg over next 14.5 hours. Blood samples were collected at 0, 0.25, 1, 6, 16, and 24 hours post dose. […] FIG. 7 provides a time-concentration profile for L-dopa and L-dopa 4′-monophosphate blood levels after administration of the combination of 4′-monophosphate prodrugs at a 4:1 ratio. […] Steady state concentration of ˜1 μg/mL was maintained over the infusion period for carbidopa. […] FIG. 9 provides a time-concentration profile for carbidopa and carbidopa 4′-monophosphate blood levels after administration of the combination of 4′-monophosphate prodrugs at a 4:1 ratio.

[21] = mini-pig, 15:1 combination 48/3.2 mg/kg
Method: In this study, the pig received a 16-hour subcutaneous infusion of a combination of the L-dopa 4′-monophosphate and the carbidopa 4′-monophosphate together in an aqueous solution at a dose ratio of 15:1 without an initial bolus dose. The doses were 48/3.2 mg/kg for L-dopa 4′-monophosphate and the carbidopa 4′-monophosphate, respectively.

[22] = Pharmacokinetic study in rats, individual prodrug IV or SC; format: in vivo, Sprague-Dawley rats; conditions: rat; for AUC: male, Sprague-Dawley, plasma, dose 1.25 mg/kg, L-dopa and carbidopa in aqueous solution, read-out: Carbidopa AUCO-8 h; for Estimated Conversion % (Based on L-dopa AUC): dose 8.5 mg/kg
Method: For comparison, a rat pharmacokinetics study with L-dopa and carbidopa was conducted to help assess the in vivo conversion of the prodrugs. The study design and measured exposures of L-dopa and carbidopa are summarized in Tables 16-A and 16-B, respectively. In brief, groups of three male Sprague-Dawley rats were given (1) L-dopa and carbidopa in aqueous solution, or (2) the individual prodrug in aqueuous solution intravenously or subcutaneously. Blood samples were collected at multiple time points over 24 hours into a collection tube containing NaAsO4, EDTA, and ascorbic acid. […] The supernatants were subjected to LC-MS analysis for quantitation of prodrug, L-dopa or carbidopa.

[23] = Local tolerability, single SC bolus in rats; format: in vivo; conditions: concentrations up to 125 mg/mL
[24] = listed as 3′,4′-diphosphate prodrug of carbidopa
[25] = listed as diphosphate prodrug of carbidopa

| Compound | % Remaining After One Day ([1]; pH 6.8) | L-Dopa or Carbidopa Formation [4] | L-Dopa or Carbidopa Formation [5] | half-life at 2.5 ug/mL [5] | L-Dopa or Carbidopa Formation [6] | L-Dopa or Carbidopa Formation [7] | L-Dopa or Carbidopa Formation [8] | L-Dopa or Carbidopa Formation [9] | stability and L-dopa or carbidopa formation [10] | stability and L-dopa or carbidopa formation [11] | stability and L-dopa or carbidopa formation [12] | stability and L-dopa or carbidopa formation [13] | stability and L-dopa or carbidopa formation [14] | stability and L-dopa or carbidopa formation [15] | L-Dopa or Carbidopa Formation [16] | half-life at 2.5 ug/mL [16] | L-Dopa or Carbidopa Formation [17] | half-life at 2.5 ug/mL [17] | half-life at 2.5 ug/mL [4] | half-life at 2.5 ug/mL [6] | other results |
| --- | --- | --- | --- | --- | --- | --- | --- | --- | --- | --- | --- | --- | --- | --- | --- | --- | --- | --- | --- | --- | --- |
| C[C@@](Cc1ccc(OP(=O)(O)O)c(OP(=O)(O)O)c1)(NN)C(=O)O [Carbidopa 3′,4′-diphosphate] | >97% | No | Yes | 0.883 h | No | No | No | No | stable without formation of L-dopa or carbidopa observed | stable without formation of L-dopa or carbidopa observed | stable without formation of L-dopa or carbidopa observed | stable without formation of L-dopa or carbidopa observed | stable without formation of L-dopa or carbidopa observed | stable without formation of L-dopa or carbidopa observed | Yes | 0.525 h | Yes | 1.32 h | – | – | % Remaining After One Day [2]: >99%; solubility ([3]; pH 5.5, amorphous): > 247 mg/mL; T1/2 [4, 24]: stable; T1/2 [4, 25]: not dephosphorylated; T1/2 [6, 24]: stable; T1/2 [6, 25]: not dephosphorylated; T1/2 [7]: stable; T1/2 [8]: stable; T1/2 [9]: stable; Estimated Conversion % (Based on Carbidopa AUC) [18, 24]: 100%; Estimated Conversion % (Based on Carbidopa AUC) ([18]; listed as carbidopa diphosphate): approximately 100% |
| C[C@@](Cc1ccc(O)c(OP(=O)(O)O)c1)(NN)C(=O)O [Carbidopa 3′-phosphate, Carbidopa 3′-monophosphate] | – | Yes | Yes | 0.342 h | Yes | Yes | Yes | Yes | – | – | – | – | – | – | – | – | – | – | 0.967 h | 0.148 h | % Remaining After One Day ([1]; pH 6.5): >94%; solubility ([3]; pH 7.1, amorphous): > 96 mg/mL; half-life at 2.5 ug/mL [7]: 10 h; half-life at 2.5 ug/mL [8]: 12.1 h; half-life at 2.5 ug/mL [9]: 6.88 h |
| C[C@@](Cc1ccc(OP(=O)(O)O)c(O)c1)(NN)C(=O)O [Carbidopa 4′-phosphate, Carbidopa 4′-monophosphate] | >98% | Yes | Yes | 0.248 h | Yes | Yes | Yes | Yes | stable without formation of L-dopa or carbidopa observed | stable without formation of L-dopa or carbidopa observed | stable without formation of L-dopa or carbidopa observed | stable without formation of L-dopa or carbidopa observed | stable without formation of L-dopa or carbidopa observed | stable without formation of L-dopa or carbidopa observed | Yes | 0.402 h | Yes | 1.23 h | 1.08 h | 0.147 h | % Remaining After 7 Days ([19]; Nitrogen Purged): >99%; % Remaining After 7 Days ([19]; Non-Purged): >97%; solubility compared to L-dopa and carbidopa ([3]; FIG. 1, pH of 7.4): increased solubility; solubility ([3]; pH 7.4, L-dopa 4′-phosphate crystalline, carbidopa 4′-phosphate amorphous): > 200 mg/mL; half-life at 2.5 ug/mL [7]: 2.3 h; half-life at 2.5 ug/mL [8]: 4.52 h; half-life at 2.5 ug/mL [9]: 1.9 h; Exposure of the remaining carbidopa 4′-monophosphate, % of carbidopa [20]: ~8%; Exposure of the remaining carbidopa 4′-monophosphate, % of the carbidopa exposure [21]: ~22% |
| C[C@@](Cc1ccc(O)c(O)c1)(NN)C(=O)O [Carbidopa, (2S)-3-(3,4-dihydroxyphenyl)-2-hydrazino-2-methylpropanoic acid] | – | – | – | – | – | – | – | – | – | – | – | – | – | – | – | – | – | – | – | – | solubility ([3]; pH 4-7, crystalline (carbidopa: crystalline monohydrate)): < 4 mg/mL; AUC ([22]; IV): 860 ng·h/mL; AUC ([22]; SC): 685 ng·h/mL; AUC ([18]; minipig, in vivo, sc, 2 mg/kg): 1610 ng·h/mL |
| N[C@@H](Cc1ccc(OP(=O)(O)O)c(OP(=O)(O)O)c1)C(=O)O [L-dopa 3′,4′-diphosphate] | – | Yes | Yes | 0.1 h | Yes | No | No | No | stable without formation of L-dopa or carbidopa observed | stable without formation of L-dopa or carbidopa observed | stable without formation of L-dopa or carbidopa observed | stable without formation of L-dopa or carbidopa observed | stable without formation of L-dopa or carbidopa observed | stable without formation of L-dopa or carbidopa observed | Yes | 1.53 h | Yes | 0.903 h | 2.3 h | 2.08 h | % Remaining After One Day ([1]; pH 7.0): >99%; % Remaining After One Day [2]: >99%; solubility ([3]; pH 5.5, amorphous): > 330 mg/mL; T1/2 [7]: stable; T1/2 [8]: stable; T1/2 [9]: stable; Estimated Conversion % (Based on L-dopa AUC) ([22]; IV): >100%; Estimated Conversion % (Based on L-dopa AUC) ([22]; SC): >100%; local intolerance (clinical signs, microscopic findings) [23]: no adverse clinical signs or microscopic findings indicative of local intolerance |
